In patent US20240043404A1 (AbbVie Inc., priority 2009, published 2024):

test system: RS4;11 cells; assay: RS4;11 cell viability assay (CellTiter Glo); assay type: cell-based, human; details: Homo sapiens, RS4-11, 48 h, 50,000 cells per well, 10% human serum, 48 hours; read-out: RS4; 11 EC50 Values;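 further: acute lymphoblastic leukemia line RS4,11, EC50 derived from percentage of viable cells after treatment relative to untreated controls, cell killing taken as a measure of Bcl-2 inhibition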
Procedure: The acute lymphoblastic leukemia (ALL) cell line RS4;11 was used as the primary human cell line to assess the cellular activity of Bcl-2 selective agents in vitro and their efficacy in vivo.
Cell cytotoxicity EC50 values were assessed using CellTiter Glo (Promega) according to the manufacturer's recommendations. The EC50 values were determined as a percentage of viable cells following treatment compared to the untreated control cells.

Structure (SMILES)	EC50 [nM]
CN(C)CC(=O)N1CCC(COc2ccc(S(=O)(=O)NC(=O)c3ccc(N4CCN(CC5=C(c6ccc(Cl)cc6)CC(C)(C)CC5)CC4)cc3Oc3cnc4[nH]ccc4c3)cc2Cl)CC1 [Example 295, N-[(3-chloro-4-{[1-(N,N-dimethylglycyl)piperidin-4-yl]methoxy}phenyl)sulfonyl]-4-(4-{[2-(4-chlorophenyl)-4,4-dimethylcyclohex-1-en-1-yl]methyl}piperazin-1-yl)-2-(1H-pyrrolo[2,3-b]pyridin-5-yloxy)benzamide]	14.8
CCN1CCOCC1COc1ncc(S(=O)(=O)NC(=O)c2ccc(N3CCN(CC4=C(c5ccc(Cl)cc5)CC(C)(C)CC4)CC3)cc2Oc2cnc3[nH]ccc3c2)cc1Br (stereo not shown) [Example 102, N-({5-bromo-6-[(4-ethylmorpholin-3-yl)methoxy]pyridin-3-yl}sulfonyl)-4-(4-{[2-(4-chlorophenyl)-4,4-dimethylcyclohex-1-en-1-yl]methyl}piperazin-1-yl)-2-(1H-pyrrolo[2,3-b]pyridin-5-yloxy)benzamide]	622
CC1(C)CCC(CN2CCN(c3ccc(C(=O)NS(=O)(=O)c4ccc(NCC5CCC6(CC5)COC6)c([N+](=O)[O-])c4)c(Oc4cnc5[nH]ccc5c4)c3)CC2)=C(c2ccc(Cl)cc2)C1 [Example 365, 4-(4-{[2-(4-chlorophenyl)-4,4-dimethylcyclohex-1-en-1-yl]methyl}piperazin-1-yl)-N-({3-nitro-4-[(2-oxaspiro[3.5]non-7-ylmethyl)amino]phenyl}sulfonyl)-2-(1H-pyrrolo[2,3-b]pyridin-5-yloxy)benzamide]	3.02
CC1(C)CCC(CN2CCN(c3ccc(C(=O)NS(=O)(=O)c4cnc(OCC5(F)CCN(C(CF)CF)CC5)c(Cl)c4)c(Oc4cnc5[nH]ccc5c4)c3)CC2)=C(c2ccc(Cl)cc2)C1 [Example 282, N-[(5-chloro-6-{[1-(1,3-difluoropropan-2-yl)-4-fluoropiperidin-4-yl]methoxy}pyridin-3-yl)sulfonyl]-4-(4-{[2-(4-chlorophenyl)-4,4-dimethylcyclohex-1-en-1-yl]methyl}piperazin-1-yl)-2-(1H-pyrrolo[2,3-b]pyridin-5-yloxy)benzamide]	32.2
CC1(C)CCC(CN2CCN(c3ccc(C(=O)NS(=O)(=O)c4ccc(NC5CCN(S(C)(=O)=O)CC5)c([N+](=O)[O-])c4)c(Oc4cnc5[nH]ccc5c4)c3)CC2)=C(c2ccc(Cl)cc2)C1 [Example 80, 4-(4-{[2-(4-chlorophenyl)-4,4-dimethylcyclohex-1-en-1-yl]methyl}piperazin-1-yl)-N-[(4-{[1-(methylsulfonyl)piperidin-4-yl]amino}-3-nitrophenyl)sulfonyl]-2-(1H-pyrrolo[2,3-b]pyridin-5-yloxy)benzamide]	68.6
CN1CCOC(CNc2ccc(S(=O)(=O)NC(=O)c3ccc(N4CCN(CC5=C(c6ccc(Cl)cc6)CC(C)(C)CC5)CC4)cc3Oc3cnc4[nH]ccc4c3)cc2[N+](=O)[O-])C1 (stereo not shown) [Example 134, 4-(4-{[2-(4-chlorophenyl)-4,4-dimethylcyclohex-1-en-1-yl]methyl}piperazin-1-yl)-N-[(4-{[(4-methylmorpholin-2-yl)methyl]amino}-3-nitrophenyl)sulfonyl]-2-(1H-pyrrolo[2,3-b]pyridin-5-yloxy)benzamide]	2.51
CC1(C)CCC(CN2CCN(c3ccc(C(=O)NS(=O)(=O)c4ccc(NCCC#N)c([N+](=O)[O-])c4)c(Oc4cnc5[nH]ccc5c4)c3)CC2)=C(c2ccc(Cl)cc2)C1 [Example 62, 4-(4-{[2-(4-chlorophenyl)-4,4-dimethylcyclohex-1-en-1-yl]methyl}piperazin-1-yl)-N-({4-[(2-cyanoethyl)amino]-3-nitrophenyl}sulfonyl)-2-(1H-pyrrolo[2,3-b]pyridin-5-yloxy)benzamide]	25.1
